Like-named read-outs stand apart in the source and are kept apart here.
Molecular target: NR1/NR2A (Homo sapiens (Human), UniProt Q05586+Q12879)
Assay: FDSS Ca2+ influx inhibition assay in HEK293 cells expressing NR1/NR2A
Type: cell-based
Conditions: 3 μM glutamate, 3 μM glycine, 1 mM Ca2+
Procedure: Cell Culture and plating: HEK293 cells expressing NR1/NR2A (Chantest, Cleveland, Ohio) were grown to 70-80% confluency as an adherent monolayer in standard tissue culture flasks at 37° C., 5% CO2 per supplier's instructions.
After induction, cell culture medium was removed and cells were rinsed once with Ca^2+ and Mg^2+-free Dulbecco's phosphate buffered saline. Cells were then removed from the flask using TrypLE™ Express (Life Technologies) according to the manufacturer's instructions and collected to 50 ml centrifuge tubes. Following two washes in Ca^2+/Mg^2+-free HBSS with 20 mM HEPES (HHnoCa), cells were counted and viability assessed using trypan blue. To load cells with Ca^2+-sensitive dye, they were resuspended in fluo-8 plus Component B (AAT Bioquest Products) diluted in HHnoCa and incubated 15 minutes at 37° C., followed by 30 minutes at room temp (in dark). Cells were then washed and resuspended in HHnoCa to remove extracellular dye and plated in 384-well plates (Falcon, uncoated) at 20,000-30,000 cells/well in a final volume of 25 μL/well.
FDSS Assay: To each well of the plate, 10 μL test compound, control (MK801) or HHnoCa buffer was added to a final concentration of 10 μM with a final concentration of DMSO of 0.1%. Following 10 minutes pre-incubation in the dark, plates are loaded onto the Hamamatsu FDSS 6000. After collecting baseline fluorescence images, 3 μM glutamate, 3 μM glycine, and 1 mM Ca^2+ in HHnoCa buffer is added to each well, and Ca^2+ is recorded for 3 minutes. Data were processed by computing ratio of fluorescence at the end of data collection to baseline fluorescence to assess degree of Ca^2+ influx inhibition relative to that observed in MK801.

[1] = inhibition relative to MK801, read-out: NR2A IC50

Sequence of NR1/NR2A (Q12879 23-1464, other chains not shown): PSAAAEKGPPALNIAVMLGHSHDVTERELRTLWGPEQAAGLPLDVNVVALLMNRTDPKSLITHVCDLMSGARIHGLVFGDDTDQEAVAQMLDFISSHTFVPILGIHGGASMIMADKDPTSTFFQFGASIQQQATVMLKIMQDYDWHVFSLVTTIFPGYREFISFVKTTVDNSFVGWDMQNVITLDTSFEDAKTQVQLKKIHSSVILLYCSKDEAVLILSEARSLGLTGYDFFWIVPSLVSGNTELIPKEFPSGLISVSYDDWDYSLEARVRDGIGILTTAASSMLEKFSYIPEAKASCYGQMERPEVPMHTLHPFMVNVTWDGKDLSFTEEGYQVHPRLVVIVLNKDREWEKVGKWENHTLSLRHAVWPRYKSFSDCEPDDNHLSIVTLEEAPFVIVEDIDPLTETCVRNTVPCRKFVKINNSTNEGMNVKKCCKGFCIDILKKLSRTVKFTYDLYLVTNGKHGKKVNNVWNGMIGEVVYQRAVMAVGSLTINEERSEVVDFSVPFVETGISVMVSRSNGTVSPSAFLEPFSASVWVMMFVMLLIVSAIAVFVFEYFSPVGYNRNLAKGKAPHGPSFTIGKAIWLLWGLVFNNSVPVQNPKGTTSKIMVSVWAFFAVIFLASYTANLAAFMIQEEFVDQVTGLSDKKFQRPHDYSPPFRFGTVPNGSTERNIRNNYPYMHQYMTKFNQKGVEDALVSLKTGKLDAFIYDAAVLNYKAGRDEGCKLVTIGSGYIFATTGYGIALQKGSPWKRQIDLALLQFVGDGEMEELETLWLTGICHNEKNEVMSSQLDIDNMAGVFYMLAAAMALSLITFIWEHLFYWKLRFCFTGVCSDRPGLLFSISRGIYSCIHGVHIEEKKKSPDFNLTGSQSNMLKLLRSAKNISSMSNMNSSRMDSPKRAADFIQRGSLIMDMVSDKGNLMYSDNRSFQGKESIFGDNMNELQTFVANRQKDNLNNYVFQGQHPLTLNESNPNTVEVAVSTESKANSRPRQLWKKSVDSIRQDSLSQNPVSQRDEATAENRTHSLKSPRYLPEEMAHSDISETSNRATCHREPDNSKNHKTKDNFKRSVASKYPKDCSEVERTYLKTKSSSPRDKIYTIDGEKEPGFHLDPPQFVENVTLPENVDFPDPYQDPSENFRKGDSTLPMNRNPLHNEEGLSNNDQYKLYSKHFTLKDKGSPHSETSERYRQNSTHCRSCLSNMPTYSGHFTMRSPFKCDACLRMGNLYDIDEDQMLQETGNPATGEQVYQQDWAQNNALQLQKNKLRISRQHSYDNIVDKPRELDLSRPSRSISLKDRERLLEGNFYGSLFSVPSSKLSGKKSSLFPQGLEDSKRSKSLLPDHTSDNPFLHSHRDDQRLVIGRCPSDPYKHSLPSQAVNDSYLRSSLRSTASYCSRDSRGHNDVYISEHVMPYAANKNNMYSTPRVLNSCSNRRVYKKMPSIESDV

IC50 [1]	IC50 (read-out: Binned Activity)	Structure (SMILES)
10 µM	> 10 µM	O=C(NCc1ccncn1)c1ccc(CNS(=O)(=O)c2ccc(F)c(Cl)c2)cn1 [5-(3-chloro-4-fluorobenzenesulfon-amidomethyl)-N-(pyrimidin-4-ylmethyl)pyridine-2-carboxamide]
	1 to 10 µM	O=C(NCc1cncnc1)c1cnc(CNS(=O)(=O)c2ccc(F)c(Cl)c2)cn1 [5-(3-chloro-4-fluorobenzenesulfon-amidomethyl)-N-(pyrimidin-5-ylmethyl)pyrazine-2-carboxamide]
	1 to 10 µM	O=C(NCc1cncnc1)c1ccc(CNS(=O)(=O)c2ccc(F)c(Cl)c2)cn1 [5-(3-chloro-4-fluorobenzenesulfon-amidomethyl)-N-(pyrimidin-5-ylmethyl)pyridine-2-carboxamide]
10 µM	> 10 µM	O=C(NCc1cccs1)c1ccc(CNS(=O)(=O)c2ccc(F)c(Cl)c2)cn1 [5-(3-chloro-4-fluorobenzenesulfon-amidomethyl)-N-(thiophen-2-ylmethyl)pyridine-2-carboxamide]
10 µM	> 10 µM	O=C(NCc1ccsc1)c1ccc(CNS(=O)(=O)c2ccc(F)c(Cl)c2)cn1 [5-(3-chloro-4-fluorobenzenesulfon-amidomethyl)-N-(thiophen-3-ylmethyl)pyridine-2-carboxamide]
	0.1 to 1 µM	Cc1ncc(C(C)NC(=O)c2cnc(CNS(=O)(=O)c3ccc(F)c(Cl)c3)cn2)s1 (stereo not drawn) [5-(3-chloro-4-fluorobenzenesulfon-amidomethyl)-N-[1-(2-methyl-1,3-thiazol-5-yl)ethyl]pyrazine-2-carboxamide]
	1 to 10 µM	CC(NC(=O)c1ccc(CNS(=O)(=O)c2ccc(F)c(Cl)c2)cn1)c1ccco1 (stereo not drawn) [5-(3-chloro-4-fluorobenzenesulfon-amidomethyl)-N-[1-(furan-2-yl)ethyl]pyridine-2-carboxamide]
	1 to 10 µM	CC(NC(=O)c1ccc(CNS(=O)(=O)c2ccc(F)c(Cl)c2)cn1)c1cccs1 (stereo not drawn) [5-(3-chloro-4-fluorobenzenesulfon-amidomethyl)-N-[1-(thiophen-2-yl)ethyl]pyridine-2-carboxamide]
10 µM	> 10 µM	COc1ccc(CCNC(=O)c2ccc(CNS(=O)(=O)c3ccc(F)c(Cl)c3)cn2)cc1 [5-(3-chloro-4-fluorobenzenesulfon-amidomethyl)-N-[2-(4-methoxyphenyl)ethyl] pyridine-2-carboxamide]
10 µM	> 10 µM	CN(C)CCNC(=O)c1ccc(CNS(=O)(=O)c2ccc(F)c(Cl)c2)cn1 [5-(3-chloro-4-fluorobenzenesulfon-amidomethyl)-N-[2-(dimethylamino)ethyl] pyridine-2-carboxamide]
10 µM	> 10 µM	CN(C)CCCNC(=O)c1ccc(CNS(=O)(=O)c2ccc(F)c(Cl)c2)cn1 [5-(3-chloro-4-fluorobenzenesulfon-amidomethyl)-N-[3-(dimethylamino)propyl] pyridine-2-carboxamide]
10 µM	> 10 µM	Cc1cc(CNC(=O)c2cnc(CNS(=O)(=O)c3ccc(F)c(Cl)c3)cn2)n(C)n1 [5-(3-chloro-4-fluorobenzenesulfon-amidomethyl)-N-[(1,3-dimethyl-1H-pyrazol-5-yl)methyl]pyrazine-2-carboxamide]
10 µM	> 10 µM	Cc1cc(CNC(=O)c2ccc(CNS(=O)(=O)c3ccc(F)c(Cl)c3)cn2)n(C)n1 [5-(3-chloro-4-fluorobenzenesulfon-amidomethyl)-N-[(1,3-dimethyl-1H-pyrazol-5-yl)methyl]pyridine-2-carboxamide]
	0.1 to 1 µM	Cc1ccc(CNC(=O)c2cnc(CNS(=O)(=O)c3ccc(F)c(Cl)c3)cn2)n1C [5-(3-chloro-4-fluorobenzenesulfon-amidomethyl)-N-[(1,5-dimethyl-1H-pyrrol-2-yl)methyl]pyrazine-2-carboxamide]
10 µM	> 10 µM	Cn1ccnc1CNC(=O)c1cnc(CNS(=O)(=O)c2ccc(F)c(Cl)c2)cn1 [5-(3-chloro-4-fluorobenzenesulfon-amidomethyl)-N-[(1-methyl-1H-imidazol-2-yl)methyl]pyrazine-2-carboxamide]
10 µM	> 10 µM	Cn1cnc(CNC(=O)c2cnc(CNS(=O)(=O)c3ccc(F)c(Cl)c3)cn2)c1 [5-(3-chloro-4-fluorobenzenesulfon-amidomethyl)-N-[(1-methyl-1H-imidazol-4-yl)methyl]pyrazine-2-carboxamide]

IC50 [1]	IC50 (read-out: Binned Activity)	Structure (SMILES)
10 µM	> 10 µM	Cn1cnc(CNC(=O)c2ccc(CNS(=O)(=O)c3ccc(F)c(Cl)c3)cn2)c1 [5-(3-chloro-4-fluorobenzenesulfon-amidomethyl)-N-[(1-methyl-1H-imidazol-4-yl)methyl]pyridine-2-carboxamide]
	1 to 10 µM	Cn1cncc1CNC(=O)c1cnc(CNS(=O)(=O)c2ccc(F)c(Cl)c2)cn1 [5-(3-chloro-4-fluorobenzenesulfon-amidomethyl)-N-[(1-methyl-1H-imidazol-5-yl)methyl]pyrazine-2-carboxamide]
	1 to 10 µM	Cn1cncc1CNC(=O)c1ccc(CNS(=O)(=O)c2ccc(F)c(Cl)c2)cn1 [5-(3-chloro-4-fluorobenzenesulfon-amidomethyl)-N-[(1-methyl-1H-imidazol-5-yl)methyl]pyridine-2-carboxamide]
	1 to 10 µM	Cn1cc(CNC(=O)c2ccc(CNS(=O)(=O)c3ccc(F)c(Cl)c3)cn2)cn1 [5-(3-chloro-4-fluorobenzenesulfon-amidomethyl)-N-[(1-methyl-1H-pyrazol-4-yl)methyl]pyridine-2-carboxamide]
10 µM	> 10 µM	Cn1nccc1CNC(=O)c1cnc(CNS(=O)(=O)c2ccc(F)c(Cl)c2)cn1 [5-(3-chloro-4-fluorobenzenesulfon-amidomethyl)-N-[(1-methyl-1H-pyrazol-5-yl)methyl]pyrazine-2-carboxamide]
10 µM	> 10 µM	Cn1nccc1CNC(=O)c1ccc(CNS(=O)(=O)c2ccc(F)c(Cl)c2)cn1 [5-(3-chloro-4-fluorobenzenesulfon-amidomethyl)-N-[(1-methyl-1H-pyrazol-5-yl)methyl]pyridine-2-carboxamide]
	1 to 10 µM	Cn1cccc1CNC(=O)c1cnc(CNS(=O)(=O)c2ccc(F)c(Cl)c2)cn1 [5-(3-chloro-4-fluorobenzenesulfon-amidomethyl)-N-[(1-methyl-1H-pyrrol-2-yl)methyl]pyrazine-2-carboxamide]
	1 to 10 µM	Cn1cccc1CNC(=O)c1ccc(CNS(=O)(=O)c2ccc(F)c(Cl)c2)cn1 [5-(3-chloro-4-fluorobenzenesulfon-amidomethyl)-N-[(1-methyl-1H-pyrrol-2-yl)methyl]pyridine-2-carboxamide]
	> 10 µM	C[C@@H](NC(=O)c1cnc(CNS(=O)(=O)c2ccc(F)c(Cl)c2)cn1)c1cncs1 [5-(3-chloro-4-fluorobenzenesulfon-amidomethyl)-N-[(1R)-1-(1,3-thiazol-5-yl)ethyl]pyrazine-2-carboxamide]
10 µM	> 10 µM	C[C@@H](NC(=O)c1ccc(CNS(=O)(=O)c2ccc(F)c(Cl)c2)cn1)c1cncs1 [5-(3-chloro-4-fluorobenzenesulfon-amidomethyl)-N-[(1R)-1-(1,3-thiazol-5-yl)ethyl]pyridine-2-carboxamide]
	0.1 to 1 µM	COc1cc(CNC(=O)c2cnc(CNS(=O)(=O)c3ccc(F)c(Cl)c3)cn2)ccn1 [5-(3-chloro-4-fluorobenzenesulfon-amidomethyl)-N-[(2-methoxypyridin-4-yl)methyl]pyrazine-2-carboxamide]
	1 to 10 µM	COc1cc(CNC(=O)c2ccc(CNS(=O)(=O)c3ccc(F)c(Cl)c3)cn2)ccn1 [5-(3-chloro-4-fluorobenzenesulfon-amidomethyl)-N-[(2-methoxypyridin-4-yl)methyl]pyridine-2-carboxamide]
10 µM	> 10 µM	Cc1nc(CNC(=O)c2cnc(CNS(=O)(=O)c3ccc(F)c(Cl)c3)cn2)cs1 [5-(3-chloro-4-fluorobenzenesulfon-amidomethyl)-N-[(2-methyl-1,3-thiazol-4-yl)methyl]pyrazine-2-carboxamide]
10 µM	> 10 µM	Cc1nc(CNC(=O)c2ccc(CNS(=O)(=O)c3ccc(F)c(Cl)c3)cn2)cs1 [5-(3-chloro-4-fluorobenzenesulfon-amidomethyl)-N-[(2-methyl-1,3-thiazol-4-yl)methyl]pyridine-2-carboxamide]
	0.1 to 1 µM	Cc1ncc(CNC(=O)c2cnc(CNS(=O)(=O)c3ccc(F)c(Cl)c3)c(C(F)(F)F)n2)s1 [5-(3-chloro-4-fluorobenzenesulfon-amidomethyl)-N-[(2-methyl-1,3-thiazol-5-yl)methyl]-6-(trifluoromethyl)pyrazine-2-carboxamide]
	0.1 to 1 µM	Cc1ncc(CNC(=O)c2ccc(CNS(=O)(=O)c3ccc(F)c(Cl)c3)cn2)s1 [5-(3-chloro-4-fluorobenzenesulfon-amidomethyl)-N-[(2-methyl-1,3-thiazol-5-yl)methyl]pyridine-2-carboxamide]
